From paper PMC4965148 (PLoS ONE, 2016)
Values joined by “and” are separate entries in the source; they are usually repeats but may differ in a detail not shown here. Identical values can stand only once. Like-named read-outs stand apart in the source and are kept apart here.

Tests used:
[1] = target: T1, HEK293/rat α7 nAChR cells (Rattus norvegicus, UniProt Q05941); assay: Whole cell voltage clamp electrophysiology; type: cell-based; settings: for Net Charge (Current Area) normalized to 300 µM ACh / Peak Current normalized to 3 mM ACh: individual cells; for mean ± SEM peak current Ymax: n = 5
T1 construct: expressed in transfected cells
Experimental: Whole-cell voltage clamp studies were conducted on HEK293/rat α7 or HEK293/human α7 nAChR cells. […] Atropine (1 μM) was included in the bathing solution. […] Cells were voltage clamped at a holding potential of -90 mV. Using the Dynaflow microfluidic perfusion system (Cellectricon; flow 26 μl/min) responses to a 300 ms application of ACh or α7 nAChR agonists were measured. Currents were filtered at 2 kHz and sampled at 10 kHz using an EPC-9 amplifier and HEKA Pulse/Patchmaster software. […] The peak current amplitude and net charge crossing the membrane (i.e. the area under the current response curve) induced by agonist application were measured using Clampfit (pClamp Suite) and normalized to the maximal response induced by ACh (3 mM ACh for peak current amplitude and 300 μM ACh for net charge).

[2] = system: MK-801 treated Sprague Dawley rats; assay: Rat MK-801 set shift procedure; type: in vivo
Experimental: Studies followed the methods described in detail in [19] and are briefly summarized here. All rats were singly housed and food-restricted (15g/rat/day) for 7 days prior to initiation of training and for the duration of the study. At the time of testing, the average (± SEM) body weight for individual treatment groups ranged from 168 ± 4 g to 180 ± 6 g. Prior to the study several habituation sessions were conducted to familiarize subjects to the maze and task requirements. The maze consisted of 4 arms (40 cm long x 14 cm wide x 20 cm high) arranged in a ‘+’ configuration and the walls and floor of each arm were distinct and colored either black or white with either a rough or smooth texture (i.e. 1 arm with each of the following combinations: white/smooth, white/rough, black/smooth, black/rough). […] The arm opposite the blocked arm was designated as the ‘start arm’ and only 1 of the 2 remaining arms was baited with food pellets. The set shift procedure comprised 2 test sessions conducted over 2 consecutive days. On the first day (Set 1) rats were required to learn the association of either the color or texture of the maze arms with the location of a food reward. Animals were randomly assigned a correct exemplar within a given dimension as being predictive of reward with 50% of the rats assigned color and 50% assigned texture. Each rat was given a maximum of 120 trials on the maze which was rotated 90 degrees between successive trials so that the adjacent arms now became either the ‘start arm’ or the arm that was blocked. Animals were allowed to visit 1 of the 2 open arms and the trial recorded as correct if the arm with the pre-assigned exemplar was visited and the food reward retrieved. The inter-trial interval was 15 s. Rats were required to achieve a performance criterion of 8 consecutive entries into the rewarded arm at which point testing stopped and the animal was presumed to have learnt the association between the correct exemplar in the assigned dimension and food reward. On day 2 (Set 2) animals were again tested in the maze configured as described for Set 1 with the exception that the dimension predicting food reward was now switched (i.e. animals trained on color for Set 1 were switched to texture and visa versa). Correct performance was again defined as 8 consecutive entries into the rewarded arm with a maximal number of 80 trials allowed. All dosing was administered on day 2 prior to Set 2 testing.

[3] = system: MK-801 treated mice; assay: Mouse MK-801 two trial Y maze; type: in vivo
Experimental: Testing was conducted in a grey polyethylene plastic Y maze that had 3 arms, 2 of 40 cm length (test arms) and 1 of 20 cm length (start arm). Each arm had distinct optical cues covering the walls and a removable partition to occlude the arm as needed. The test consisted of a forced choice trial followed by a free-choice trial. For the forced choice trial the start arm and one test arm was open with access to the 2nd test arm blocked by the partition. Individual subjects were placed in the start arm and allowed to explore the open test arm for 8 min after which they were removed from the maze, placed in a holding cage and the maze was cleaned. Animals were then immediately placed back on the Y maze for the free choice trial and allowed to explore both open test arms for 4 min. The protocol was thus designed for minimal delay between the forced choice and free choice trials. […] For each subject the % time exploring the novel arm during the free choice trial was calculated using the formula: % novel time = novel time/(novel + familiar time) x 100.

[4] = target: Adrenergic α1B (Homo sapiens, UniProt P35368); assay: Selectivity panel, binding
[5] = target: Adrenergic α1D (Homo sapiens, UniProt P25100); assay: Selectivity panel, binding
[6] = target: Nav1.5 (Homo sapiens, UniProt Q14524); assay: Selectivity panel, functional; type: cell-based
[7] = target: Muscarinic M2 (Homo sapiens, UniProt P08172); assay: Selectivity panel, binding
[8] = target: Muscarinic M5 (Homo sapiens, UniProt P08912); assay: Selectivity panel, binding; settings: read-out: % inhibition @ 10 µM
[9] = target: Norepinephrine transporter (Homo sapiens, UniProt P23975); assay: Selectivity panel, binding
[10] = target: PDE3; assay: Selectivity panel, enzyme; type: biochemical; settings: Human
[11] = target: Progesterone receptor (Homo sapiens, UniProt P06401); assay: Selectivity panel, binding
[12] = system: S(+)ketamine treated rats; assay: Rat S(+)ketamine N40 gating
[13] = target: HEK293/Human α7 nAChR (Homo sapiens, UniProt P36544); assay: [3H]-A-585539 filtration binding; design: expressed in transfected cells
HEK293/Human α7 nAChR, sequence (P36544 23-502): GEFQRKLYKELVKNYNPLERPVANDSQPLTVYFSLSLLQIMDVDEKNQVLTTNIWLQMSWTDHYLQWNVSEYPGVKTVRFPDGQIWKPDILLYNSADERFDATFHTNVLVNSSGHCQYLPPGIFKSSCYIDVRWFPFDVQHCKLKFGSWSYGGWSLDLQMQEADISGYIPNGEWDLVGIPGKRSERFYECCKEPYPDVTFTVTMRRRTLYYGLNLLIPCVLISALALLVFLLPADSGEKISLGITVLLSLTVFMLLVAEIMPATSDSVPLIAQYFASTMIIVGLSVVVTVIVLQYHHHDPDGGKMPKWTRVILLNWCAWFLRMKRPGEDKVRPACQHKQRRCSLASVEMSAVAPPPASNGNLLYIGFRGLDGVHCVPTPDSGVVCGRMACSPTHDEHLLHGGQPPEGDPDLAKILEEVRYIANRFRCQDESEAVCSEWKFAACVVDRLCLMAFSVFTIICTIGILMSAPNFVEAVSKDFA

T1 sequence (Q05941 23-502): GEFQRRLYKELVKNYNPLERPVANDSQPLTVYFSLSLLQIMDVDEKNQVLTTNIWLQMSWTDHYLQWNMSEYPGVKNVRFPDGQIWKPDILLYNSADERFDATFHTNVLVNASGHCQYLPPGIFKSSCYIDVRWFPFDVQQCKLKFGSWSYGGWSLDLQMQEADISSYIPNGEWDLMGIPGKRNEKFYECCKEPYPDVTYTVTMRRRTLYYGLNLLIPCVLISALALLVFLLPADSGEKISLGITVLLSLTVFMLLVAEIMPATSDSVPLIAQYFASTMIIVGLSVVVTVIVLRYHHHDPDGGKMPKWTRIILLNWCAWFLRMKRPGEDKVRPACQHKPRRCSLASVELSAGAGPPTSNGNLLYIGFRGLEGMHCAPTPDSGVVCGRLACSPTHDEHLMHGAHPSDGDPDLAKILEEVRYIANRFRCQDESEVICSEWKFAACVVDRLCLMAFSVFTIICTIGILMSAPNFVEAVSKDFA
Nav1.5, sequence (Q14524 whole entry): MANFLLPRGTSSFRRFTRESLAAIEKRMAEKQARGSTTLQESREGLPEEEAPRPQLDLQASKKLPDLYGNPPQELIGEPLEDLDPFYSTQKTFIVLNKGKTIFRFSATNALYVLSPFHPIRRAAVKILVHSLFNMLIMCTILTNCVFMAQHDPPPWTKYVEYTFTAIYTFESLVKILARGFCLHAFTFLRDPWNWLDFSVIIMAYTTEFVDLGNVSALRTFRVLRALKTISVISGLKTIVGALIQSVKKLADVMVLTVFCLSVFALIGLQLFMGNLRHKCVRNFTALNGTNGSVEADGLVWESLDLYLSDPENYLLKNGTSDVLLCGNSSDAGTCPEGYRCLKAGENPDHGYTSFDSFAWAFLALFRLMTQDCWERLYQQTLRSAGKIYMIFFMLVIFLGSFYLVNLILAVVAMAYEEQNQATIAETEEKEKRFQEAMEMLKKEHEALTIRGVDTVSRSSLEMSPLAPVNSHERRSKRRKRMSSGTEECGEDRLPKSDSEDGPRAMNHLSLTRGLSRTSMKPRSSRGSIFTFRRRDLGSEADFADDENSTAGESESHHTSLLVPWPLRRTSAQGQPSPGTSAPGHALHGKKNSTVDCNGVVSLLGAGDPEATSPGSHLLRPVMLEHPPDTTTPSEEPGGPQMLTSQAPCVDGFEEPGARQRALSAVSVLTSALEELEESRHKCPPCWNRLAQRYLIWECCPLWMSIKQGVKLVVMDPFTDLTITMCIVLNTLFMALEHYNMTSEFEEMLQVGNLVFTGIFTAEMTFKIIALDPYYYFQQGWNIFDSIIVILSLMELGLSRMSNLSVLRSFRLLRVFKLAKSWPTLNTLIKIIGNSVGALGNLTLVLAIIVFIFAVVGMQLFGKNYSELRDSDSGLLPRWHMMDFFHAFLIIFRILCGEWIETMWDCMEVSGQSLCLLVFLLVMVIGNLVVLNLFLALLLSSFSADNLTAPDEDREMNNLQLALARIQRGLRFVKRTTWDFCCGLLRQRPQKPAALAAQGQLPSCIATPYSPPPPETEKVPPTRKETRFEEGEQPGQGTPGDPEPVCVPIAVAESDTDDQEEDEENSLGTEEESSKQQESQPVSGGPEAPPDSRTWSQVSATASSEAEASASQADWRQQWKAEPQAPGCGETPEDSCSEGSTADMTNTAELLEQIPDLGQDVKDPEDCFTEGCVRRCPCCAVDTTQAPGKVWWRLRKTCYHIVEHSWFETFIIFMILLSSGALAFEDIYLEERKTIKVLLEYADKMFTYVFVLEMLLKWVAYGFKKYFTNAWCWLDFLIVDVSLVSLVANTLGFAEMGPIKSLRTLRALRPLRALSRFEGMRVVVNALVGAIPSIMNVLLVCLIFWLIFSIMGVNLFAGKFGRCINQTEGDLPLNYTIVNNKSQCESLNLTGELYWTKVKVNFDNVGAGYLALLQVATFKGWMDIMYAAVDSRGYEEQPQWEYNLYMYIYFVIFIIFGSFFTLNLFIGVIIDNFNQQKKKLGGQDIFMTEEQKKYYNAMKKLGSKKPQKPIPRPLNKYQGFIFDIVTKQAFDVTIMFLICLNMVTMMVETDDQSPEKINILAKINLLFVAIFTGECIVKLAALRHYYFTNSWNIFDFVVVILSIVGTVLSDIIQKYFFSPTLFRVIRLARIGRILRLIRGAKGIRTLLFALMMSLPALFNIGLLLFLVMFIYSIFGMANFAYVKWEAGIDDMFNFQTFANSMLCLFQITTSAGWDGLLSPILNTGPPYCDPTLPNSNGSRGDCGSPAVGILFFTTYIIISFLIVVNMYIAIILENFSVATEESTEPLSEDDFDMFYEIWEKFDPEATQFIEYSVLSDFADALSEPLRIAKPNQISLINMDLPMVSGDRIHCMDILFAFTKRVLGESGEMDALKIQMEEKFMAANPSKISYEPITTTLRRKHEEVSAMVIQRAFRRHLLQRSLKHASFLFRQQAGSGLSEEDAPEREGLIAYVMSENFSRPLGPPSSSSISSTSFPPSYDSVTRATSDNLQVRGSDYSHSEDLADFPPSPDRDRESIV
Progesterone receptor, sequence (P06401 whole entry): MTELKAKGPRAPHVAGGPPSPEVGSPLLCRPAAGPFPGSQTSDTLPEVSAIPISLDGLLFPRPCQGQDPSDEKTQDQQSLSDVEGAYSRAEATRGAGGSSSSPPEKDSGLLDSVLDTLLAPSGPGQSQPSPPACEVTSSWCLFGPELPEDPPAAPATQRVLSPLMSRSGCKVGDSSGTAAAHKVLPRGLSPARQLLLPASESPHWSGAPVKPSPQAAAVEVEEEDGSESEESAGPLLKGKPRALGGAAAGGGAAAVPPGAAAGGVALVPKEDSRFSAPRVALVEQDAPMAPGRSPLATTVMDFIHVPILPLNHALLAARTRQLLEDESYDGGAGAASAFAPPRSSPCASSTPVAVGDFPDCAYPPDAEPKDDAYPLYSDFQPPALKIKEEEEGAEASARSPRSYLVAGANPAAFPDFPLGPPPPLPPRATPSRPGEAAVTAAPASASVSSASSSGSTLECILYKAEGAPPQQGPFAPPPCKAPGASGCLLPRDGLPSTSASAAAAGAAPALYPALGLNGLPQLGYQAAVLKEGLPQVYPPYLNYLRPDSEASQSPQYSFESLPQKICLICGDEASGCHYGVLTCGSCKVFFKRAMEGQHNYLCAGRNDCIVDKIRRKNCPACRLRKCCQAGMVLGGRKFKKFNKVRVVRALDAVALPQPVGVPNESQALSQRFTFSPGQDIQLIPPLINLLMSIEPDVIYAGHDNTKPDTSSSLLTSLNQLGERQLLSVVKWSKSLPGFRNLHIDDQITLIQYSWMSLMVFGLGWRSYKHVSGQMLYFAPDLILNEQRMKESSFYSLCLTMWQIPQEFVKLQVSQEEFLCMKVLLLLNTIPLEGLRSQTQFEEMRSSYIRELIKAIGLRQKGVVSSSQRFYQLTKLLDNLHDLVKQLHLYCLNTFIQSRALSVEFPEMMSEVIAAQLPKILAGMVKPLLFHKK
Muscarinic M5, sequence (P08912 whole entry): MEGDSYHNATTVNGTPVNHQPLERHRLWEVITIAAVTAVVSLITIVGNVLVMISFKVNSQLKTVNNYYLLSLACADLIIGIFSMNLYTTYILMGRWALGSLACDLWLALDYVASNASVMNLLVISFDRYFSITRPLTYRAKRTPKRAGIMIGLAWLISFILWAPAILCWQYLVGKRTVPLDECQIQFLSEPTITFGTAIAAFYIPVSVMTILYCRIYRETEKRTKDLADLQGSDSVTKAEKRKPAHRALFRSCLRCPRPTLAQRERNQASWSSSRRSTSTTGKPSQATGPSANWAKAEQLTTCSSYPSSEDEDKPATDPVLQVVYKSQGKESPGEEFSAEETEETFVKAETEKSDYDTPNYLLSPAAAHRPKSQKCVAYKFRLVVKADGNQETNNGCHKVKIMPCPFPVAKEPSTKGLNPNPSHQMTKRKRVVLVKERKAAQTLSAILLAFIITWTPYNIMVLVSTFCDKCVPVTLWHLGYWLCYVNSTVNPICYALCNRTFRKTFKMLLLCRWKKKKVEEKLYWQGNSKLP
Adrenergic α1D, sequence (P25100 whole entry): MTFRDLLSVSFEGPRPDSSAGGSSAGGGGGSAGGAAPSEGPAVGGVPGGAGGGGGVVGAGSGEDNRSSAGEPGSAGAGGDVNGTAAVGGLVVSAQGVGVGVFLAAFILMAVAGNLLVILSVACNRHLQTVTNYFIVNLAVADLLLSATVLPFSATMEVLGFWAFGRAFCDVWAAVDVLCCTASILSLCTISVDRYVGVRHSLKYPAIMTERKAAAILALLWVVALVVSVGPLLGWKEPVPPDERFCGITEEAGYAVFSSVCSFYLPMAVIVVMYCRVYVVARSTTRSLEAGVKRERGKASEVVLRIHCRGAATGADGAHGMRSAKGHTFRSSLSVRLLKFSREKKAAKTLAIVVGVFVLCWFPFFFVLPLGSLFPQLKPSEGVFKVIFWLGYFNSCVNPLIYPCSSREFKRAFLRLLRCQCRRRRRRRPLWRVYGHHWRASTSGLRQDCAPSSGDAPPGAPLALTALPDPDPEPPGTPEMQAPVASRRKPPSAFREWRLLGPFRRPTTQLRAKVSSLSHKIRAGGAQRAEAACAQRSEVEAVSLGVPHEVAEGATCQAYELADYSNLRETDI

With `c1cn(-c2cc(NC3=NC[C@@]4(CN5CCC4CC5)O3)ncn2)cn1` [BMS-933043, (2R)-N-(6-(1H-imidazol-1-yl)-4-pyrimidinyl)-4'H-spiro[4-azabicyclo[2.2.2]octane-2,5'-[1,3]oxazol]-2'-amine] the EC50 [1] was 140 ± 30 nM, the “Net Charge (Current Area) normalized to 300 µM ACh” value ([1]; 0.1 µM) was 0.00864 and -0.014 and 0.05917 and 0.0877 and the “Peak Current normalized to 3 mM ACh” value ([1]; 0.1 µM) was 0.01158 and 0.01083 and 0.01236 and 0.0131. For the same compound, the “Net Charge (Current Area) normalized to 300 µM ACh” value ([1]; 0.3 µM) was 0.4138 and 0.2853 and 0.4739 and 0.5256, the “Peak Current normalized to 3 mM ACh” value ([1]; 0.3 µM) was 0.04784 and 0.02829 and 0.03284 and 0.03669 and the “Net Charge (Current Area) normalized to 300 µM ACh” value ([1]; 1 µM) was 0.7172 and 0.3555 and 0.6626 and 0.6549. The “Peak Current normalized to 3 mM ACh” value ([1]; 1 µM) was 0.07111 and 0.07356 and 0.0749 and 0.08082, the “Net Charge (Current Area) normalized to 300 µM ACh” value ([1]; 3 µM) was 0.7919 and 0.4794 and 0.6677 and 0.6569 and the “Peak Current normalized to 3 mM ACh” value ([1]; 3 µM) was 0.1558 and 0.1519 and 0.1651 and 0.1365. The “Net Charge (Current Area) normalized to 300 µM ACh” value ([1]; 10 µM) was 0.8266 and 0.4637 and 0.7322 and 0.6673, the “Peak Current normalized to 3 mM ACh” value ([1]; 10 µM) was 0.2731 and 0.2904 and 0.2952 and 0.2153 and the “mean ± SEM peak current Ymax” value ([1]; BMS-933043 10 μM alone) was 0.26 ± 0.03. For the same compound, the “mean ± SEM peak current Ymax” value ([1]; BMS-933043 10 μM in the presence of 10 nM MLA) was 0.02 ± 0.003, the “Mean ± SEM Net Charge Ymax” value ([1]; Rat, normalized to 300 μM ACh) was 0.67 ± 0.07 and the “Mean ± SEM Peak Current Ymaxobs @ 10 μM” value ([1]; Rat, normalized to 3 mM ACh) was 0.27 ± 0.02. The “Number of trials to criteria Mean ± SEM” value ([2]; 0.3 mg/kg po / MK-801, 0.3-3 mg/kg study) was 66.4 ± 3.2, the “Number of trials to criteria Mean ± SEM” value ([2]; 1 mg/kg po / MK-801, 0.3-3 mg/kg study) was 54.4 ± 4.8 and the “Number of trials to criteria Mean ± SEM” value ([2]; 3 mg/kg po / MK-801, 0.3-3 mg/kg study) was 50.3 ± 4.3. The “Number of trials to criteria Mean ± SEM” value ([2]; 3 mg/kg po / MK-801, 3-30 mg/kg study) was 48.3 ± 5.8, the “Number of trials to criteria Mean ± SEM” value ([2]; 10 mg/kg po / MK-801, 3-30 mg/kg study) was 54.0 ± 3.2 and the “Number of trials to criteria Mean ± SEM” value ([2]; 30 mg/kg po / MK-801, 3-30 mg/kg study) was 68.0 ± 4.7. For the same compound, the “perseverative errors in MK-801-treated animals” value ([2]; po) was “decreased perseverative errors”, the “time spent in the novel arm in MK-801-treated mice” value ([3]; doses of 1, 3 and 10 mg/kg sc) was “significantly increased time spent in the novel arm” and the “Active dose range, MK-801 Y maze” value ([3]; sc) was 1–10 (sc) mg/kg. The IC50 [4] was greater than 30000 nM, the IC50 [5] was greater than 30000 nM and the IC50 [6] was greater than 30000 nM. The IC50 [7] was 19100 nM, the inhibition at 10 µM [8] was 8% and the IC50 [9] was greater than 30000 nM. The IC50 [10] was greater than 30000 nM, the IC50 [11] was greater than 150000 nM and the “deficit in N40 gating following S(+)ketamine” value ([12]; 0.3 and 10 mg/kg sc) was “neither the lowest dose (0.3 mg/kg; data not shown) nor the highest dose (10 mg/kg) tested were significantly different”. The “deficit in N40 gating following S(+)ketamine” value ([12]; 0.56, 1 and 3 mg/kg sc) was “significant reduction”, the “Active dose range, S(+)Ketamine N40 gating” value ([12]; sc) was 0.56–3.0 (sc) mg/kg and the Ki ([13]; HEK293/Human α7 nAChR Mean ± SD Ki) was 8 nM. For the same compound, the Ki ([13]; HEK293/human α7 nAChR Ki (individual)) was 10.5 nM and 5.7 nM, the Ki ([13]; read-out: HEK293/Human α7 nAChR Mean ± SD Ki) was 8.1 nM and the Ki ([13]; read-out: HEK293/human α7 nAChR Ki (individual)) was 8.1 nM.
